Source: US20080306128A1, “Preparation of Hydrochloride Salts of Tetrazole Derivative” (priority 2004, published 2008)

Test: stability of the new salt form on longer heating at increased temperatures
Assay type: physicochemical

stability (decomposition on heating): does not decompose
SMILES: CCCCC1=NC2(CCCC2)C(=O)N1Cc1ccc(-c2ccccc2-c2nnn[nH]2)cc1.Cl [2-butyl-1-[2′-(1H-tetrazol-5-yl)bifenyl-4-yl-methyl]spiro[2-imidazoline-4.1′-cyclopentane]-5-one hydrochloride]
